{"source": "ChEMBL document CHEMBL6127124", "about": "“Structure-Activity Relationships and Discovery of (S)-5-(tert-Butyl)-11-(difluoromethoxy)-9-methoxy-2-oxo-1,2,5,6-tetrahydropyrido[2',1':2,3]imidazo[4,5-h]quinoline-3-carboxylic Acid (AB-161), a Novel Orally Available and Liver-Centric HBV RNA Destabilizer” (J Med Chem, 2024)", "key": {"[1]": {"test": "Free AUC (0 to 24 hrs) in Beagle dog at 60 mg/kg, po qd measured after 91 days", "format": "ADME, organism-based, Canis lupus familiaris", "conditions": "in vivo, 2184 h, time 91 day"}, "[2]": {"test": "Free Cmax in Beagle dog at 45 mg/kg, po qd measured after 91 days", "format": "ADME, organism-based, Canis lupus familiaris", "conditions": "in vivo, 2184 h, time 91 day"}, "[3]": {"test": "Ratio of drug concentration in heart to plasma of Sprague-Dawley rat at 10 mg/kg, po measured for 24 hrs by LC-MS/MS analysis", "format": "ADME, organism-based", "conditions": "heart and plasma"}, "[4]": {"test": "Total Cmax in Beagle dog at 5 mg/kg, po qd measured after 91 days", "format": "ADME, organism-based, Canis lupus familiaris", "conditions": "in vivo, time 91 day"}, "[5]": {"test": "Free Cmax in Beagle dog at 15 mg/kg, po qd measured after 91 days", "format": "ADME, organism-based, Canis lupus familiaris", "conditions": "in vivo, 2184 h, time 91 day"}, "[6]": {"test": "Total AUC (0 to 24 hrs) in Beagle dog at 15 mg/kg, po qd measured after 91 days", "format": "ADME, organism-based, Canis lupus familiaris", "conditions": "in vivo, time 91 day"}, "[7]": {"test": "Free AUC (0 to 24 hrs) in Beagle dog at 5 mg/kg, po qd measured after 91 days", "format": "ADME, organism-based, Canis lupus familiaris", "conditions": "in vivo, 2184 h, time 91 day"}, "[8]": {"test": "Toxicity in Beagle dog assessed as animal death at 60 mg/kg, po qd measured after 45 days", "format": "organism-based, Canis lupus familiaris", "conditions": "in vivo, 1080 h, time 45 day"}, "[9]": {"test": "Free Cmax in Beagle dog at 5 mg/kg, po qd measured after 91 days", "format": "ADME, organism-based, Canis lupus familiaris", "conditions": "in vivo, 2184 h, time 91 day"}, "[10]": {"test": "Ratio of drug concentration in liver to plasma of Sprague-Dawley rat at 10 mg/kg, po measured for 24 hrs by LC-MS/MS analysis", "format": "ADME, organism-based", "conditions": "liver and plasma"}, "[11]": {"molecular_target": "T1, CYP1A2 (Homo sapiens, UniProt P05177)", "T1 sequence (P05177 whole entry)": "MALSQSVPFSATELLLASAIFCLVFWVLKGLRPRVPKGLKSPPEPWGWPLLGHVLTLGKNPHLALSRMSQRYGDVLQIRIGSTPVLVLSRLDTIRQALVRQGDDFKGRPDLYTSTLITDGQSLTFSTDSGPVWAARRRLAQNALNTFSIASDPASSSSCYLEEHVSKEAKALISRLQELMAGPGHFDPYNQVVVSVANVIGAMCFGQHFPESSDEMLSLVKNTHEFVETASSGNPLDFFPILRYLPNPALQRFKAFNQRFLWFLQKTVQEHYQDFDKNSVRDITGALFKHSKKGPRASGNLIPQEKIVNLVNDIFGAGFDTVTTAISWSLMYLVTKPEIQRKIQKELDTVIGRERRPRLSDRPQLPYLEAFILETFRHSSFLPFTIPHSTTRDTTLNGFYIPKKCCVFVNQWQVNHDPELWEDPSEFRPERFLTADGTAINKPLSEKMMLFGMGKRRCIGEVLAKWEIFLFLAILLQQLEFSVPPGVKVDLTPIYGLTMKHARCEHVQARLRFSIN", "test": "Inhibition of CYP1A2 in human liver microsomes using phenacetin as substrate preincubated for 30 min followed by NADPH addition measured after 12 mins by LC-MS/MS analysis", "format": "ADME, Microsome", "conditions": "human, liver microsomes, probe phenacetin"}, "[12]": {"test": "Total Cmax in Beagle dog at 15 mg/kg, po qd measured after 91 days", "format": "ADME, organism-based, Canis lupus familiaris", "conditions": "in vivo, time 91 day"}, "[13]": {"test": "Drug concentration in Sprague-Dawley rat liver at 10 mg/kg, po measured for 24 hrs by LC-MS/MS analysis", "format": "ADME, organism-based", "conditions": "read-out: Ct"}, "[14]": {"test": "Oral bioavailability in Sprague-Dawley rat at 10 mg/kg measured for 24 hrs by LC-MS/MS analysis", "format": "ADME, organism-based", "conditions": "in vivo"}, "[15]": {"test": "Total AUC (0 to 24 hrs) in Beagle dog at 60 mg/kg, po qd measured after 91 days", "format": "ADME, organism-based, Canis lupus familiaris", "conditions": "in vivo, time 91 day"}, "[16]": {"molecular_target": "CYP3A4 (Homo sapiens, UniProt P08684)", "sequence (P08684 whole entry)": "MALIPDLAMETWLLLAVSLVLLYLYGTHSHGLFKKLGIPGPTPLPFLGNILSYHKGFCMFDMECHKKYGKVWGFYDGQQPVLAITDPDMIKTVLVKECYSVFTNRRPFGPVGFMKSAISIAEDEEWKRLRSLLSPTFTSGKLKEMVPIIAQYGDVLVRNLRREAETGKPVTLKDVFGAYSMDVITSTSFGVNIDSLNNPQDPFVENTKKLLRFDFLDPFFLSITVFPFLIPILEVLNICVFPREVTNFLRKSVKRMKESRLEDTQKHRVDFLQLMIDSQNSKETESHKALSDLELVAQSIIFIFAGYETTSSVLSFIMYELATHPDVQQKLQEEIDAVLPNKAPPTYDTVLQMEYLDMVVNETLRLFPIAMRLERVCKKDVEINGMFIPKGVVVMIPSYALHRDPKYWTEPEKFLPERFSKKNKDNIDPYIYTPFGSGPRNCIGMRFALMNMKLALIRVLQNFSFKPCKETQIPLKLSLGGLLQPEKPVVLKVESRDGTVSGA", "test": "Inhibition of CYP3A4 in human liver microsomes using testosterone as substrate preincubated for 30 min followed by NADPH addition measured after 12 mins by LC-MS/MS analysis", "format": "ADME, Microsome", "conditions": "human, liver microsomes, probe testosterone"}, "[17]": {"test": "Total AUC (0 to 24 hrs) in Beagle dog at 45 mg/kg, po qd measured after 91 days", "format": "ADME, organism-based, Canis lupus familiaris", "conditions": "in vivo, time 91 day"}, "[18]": {"test": "Toxicity in male Beagle dog assessed as decrease in body weight at 15 to 45 mg/kg, po qd measured for 60 days", "format": "organism-based, Canis lupus familiaris", "set-up": "scale not given: the % may be the effect or the level left", "conditions": "in vivo, 1440 h, dose 15-45 mg/kg, time 60 day"}, "[19]": {"test": "Toxicity in female Beagle dog assessed as change in body weight at 15 to 45 mg/kg, po qd measured for 60 days", "format": "organism-based, Canis lupus familiaris", "conditions": "in vivo, 1440 h, dose 15-45 mg/kg, time 60 day"}, "[20]": {"test": "Free AUC (0 to 24 hrs) in Beagle dog at 45 mg/kg, po qd measured after 60 days", "format": "ADME, organism-based, Canis lupus familiaris", "conditions": "in vivo, 1440 h, time 60 day"}, "[21]": {"test": "Total AUC (0 to 24 hrs) in Beagle dog at 45 mg/kg, po qd measured after 60 days", "format": "ADME, organism-based, Canis lupus familiaris", "conditions": "in vivo, time 60 day"}, "[22]": {"test": "Toxicity in Beagle dog assessed as splayed limbs at 15 to 45 mg/kg, po qd measured after 60 days", "format": "organism-based, Canis lupus familiaris", "conditions": "in vivo, 1440 h, dose 15-45 mg/kg, time 60 day"}, "[23]": {"tested_on": "Hepatitis B virus", "test": "Antiviral activity against HBV infected in human primary hepatocytes assessed as reduction in HBeAg production pre-infected cells with virus followed by inoculum removal and subsequent addition of compounds with replenishment on days 4,7,9,11 and 14 post-infection measured after 16 days", "format": "functional, organism-based", "conditions": "Hepatocyte, 384 h"}, "[24]": {"tested_on": "Hepatitis B virus", "test": "Antiviral activity against HBV infected in human primary hepatocytes assessed as reduction in HBV DNA production pre-infected cells with virus followed by inoculum removal and subsequent addition of compounds with replenishment on days 4,7,9,11 and 14 post-infection measured after 16 days", "format": "functional, organism-based", "conditions": "Hepatocyte, 384 h"}, "[25]": {"tested_on": "Hepatitis B virus", "test": "Antiviral activity against HBV infected in human primary hepatocytes assessed as reduction in HBsAg production pre-infected cells with virus followed by inoculum removal and subsequent addition of compounds with replenishment on days 4,7,9,11 and 14 post-infection measured after 16 days", "format": "functional, organism-based", "conditions": "Hepatocyte, 384 h"}, "[26]": {"test": "Free Cmax in Beagle dog at 45 mg/kg, po qd measured after 60 days", "format": "ADME, organism-based, Canis lupus familiaris", "conditions": "in vivo, 1440 h, time 60 day"}, "[27]": {"test": "Toxicity in female Beagle dog assessed as fold decrease in calcium level at 15 to 45 mg/kg, po qd measured for 60 days", "format": "organism-based, Canis lupus familiaris", "set-up": "scale not given: the % may be the effect or the level left", "conditions": "in vivo, 1440 h, dose 15-45 mg/kg, time 60 day"}, "[28]": {"test": "Toxicity in female Beagle dog assessed as decrease in total protein level at 15 to 45 mg/kg, po qd measured for 60 days", "format": "organism-based, Canis lupus familiaris", "set-up": "scale not given: the % may be the effect or the level left", "conditions": "in vivo, 1440 h, dose 15-45 mg/kg, time 60 day"}, "[29]": {"test": "Total AUC (0 to 24 hrs) in Beagle dog at 15 mg/kg, po qd measured after 60 days", "format": "ADME, organism-based, Canis lupus familiaris", "conditions": "in vivo, time 60 day"}, "[30]": {"test": "Total Cmax in Beagle dog at 15 mg/kg, po qd measured after 60 days", "format": "ADME, organism-based, Canis lupus familiaris", "conditions": "in vivo, time 60 day"}, "[31]": {"test": "Ratio of drug concentration in liver to plasma of Sprague-Dawley rat at 5 mg/kg, po measured for 24 hrs by LC-MS/MS analysis", "format": "ADME, organism-based", "conditions": "liver and plasma"}}}
{"smiles": "COCCCOc1cc2c(nc1OC)-c1cc(=O)c(C(=O)O)cn1[C@H](C(C)C)C2", "values": [{"measurement": "fAUC", "setting": "[1]", "result": 47500, "unit": "ng·h/mL"}, {"measurement": "fCmax", "setting": "[2]", "result": 10300, "unit": "ng/mL"}, {"measurement": "Kp at 24 h", "setting": "[3]", "result": 1.9}, {"measurement": "Cmax", "setting": "[4]", "result": 4680, "unit": "ng/mL"}, {"measurement": "fCmax", "setting": "[5]", "result": 4270, "unit": "ng/mL"}, {"measurement": "AUC at 2184 h", "setting": "[6]", "result": 30600, "unit": "ng·h/mL"}, {"measurement": "fAUC", "setting": "[7]", "result": 3900, "unit": "ng·h/mL"}, {"measurement": "Activity", "setting": "[8]", "result": "Toxic"}, {"measurement": "fCmax", "setting": "[9]", "result": 1740, "unit": "ng/mL"}, {"measurement": "Kp at 24 h", "setting": "[10]", "result": 3.3}, {"measurement": "IC50 at 12 min", "setting": "[11]", "result": "> 25000", "unit": "nM"}, {"measurement": "Cmax", "setting": "[12]", "result": 11500, "unit": "ng/mL"}, {"measurement": "concentration at 24 h", "setting": "[13]", "result": 93, "unit": "ng/g"}, {"measurement": "bioavailability", "setting": "[14]", "result": 80, "unit": "%"}, {"measurement": "AUC at 2184 h", "setting": "[15]", "result": 128000, "unit": "ng·h/mL"}, {"measurement": "IC50 at 12 min", "setting": "[16]", "result": "> 25000", "unit": "nM"}, {"measurement": "AUC at 2184 h", "setting": "[17]", "result": 95200, "unit": "ng·h/mL"}]}
{"smiles": "COc1cc(OC(F)F)c2nc3c(n2c1)C[C@@H](C(C)(C)C)c1cc(C(=O)O)c(=O)[nH]c1-3", "values": [{"measurement": "Activity", "setting": "[18]", "result": "< 15", "unit": "%"}, {"measurement": "Activity", "setting": "[19]", "result": "Non-Toxic"}, {"measurement": "fAUC", "setting": "[20]", "result": 3100, "unit": "ng·h/mL"}, {"measurement": "AUC at 1440 h", "setting": "[21]", "result": 65900, "unit": "ng·h/mL"}, {"measurement": "Activity", "setting": "[22]", "result": "Non-Toxic"}, {"measurement": "EC50", "setting": "[23]", "result": 8.5, "unit": "nM"}, {"measurement": "EC50", "setting": "[24]", "result": 8.5, "unit": "nM"}, {"measurement": "EC50", "setting": "[25]", "result": 8.5, "unit": "nM"}, {"measurement": "fCmax", "setting": "[26]", "result": 834, "unit": "ng/mL"}, {"measurement": "Activity", "setting": "[27]", "result": "< 10", "unit": "%"}, {"measurement": "Activity", "setting": "[28]", "result": "< 15", "unit": "%"}, {"measurement": "AUC at 1440 h", "setting": "[29]", "result": 3900, "unit": "ng·h/mL"}, {"measurement": "Cmax", "setting": "[30]", "result": 13900, "unit": "ng/mL"}]}
{"smiles": "CC(C)(C)[C@@H]1Cc2c(nc3c(C(F)(F)F)cc(C4CC4)cn23)-c2[nH]c(=O)c(C(=O)O)cc21", "values": [{"measurement": "Kp at 24 h", "setting": "[31]", "result": 920}]}
